Experimental data as given in patent US20250281629A1, “COMPOSITIONS AND METHODS FOR ANTI-PHOSPHOCHOLINE ACTIVE IMMUNOTHERAPY” (Duke University, priority 2022, published 2025).
Where no end group is shown, it is not given here.

Assays:
Format in all cases: in vivo, mouse
C57BL/6 mice = test: Chronic DSS-induced colitis, prophylactic immunization
Source text: DSS-Induced Colitis and Assessment. Before inducing colitis, mice from each treatment group were divided amongst the cages to avoid any cage-related disease effects. This excluded the PBS without DSS (healthy) control mice which remained in their own cage and received normal drinking water for the duration of the experiment. Colitis was induced by administering 2% (w/v) colitis-grade dextran sodium sulfate (MP Biomedicals, 160110) in drinking water. For determination of prophylactic immunization efficacy, mice were immunized i.p. 3 times at days −35, −21 and −7 before colitis induction on Day 0. Chronic colitis was induced via DSS-containing water given for 5 days followed by 5 days of normal drinking water for 3 cycles, resulting in a 30-day model. A shorter, acute DSS-induced colitis model consisting of one cycle of colitis was achieved by giving 5 days of 2% DSS in water followed by 5 days of normal drinking water for a total of 10 days and was also examined in a preventative immunization scenario. Mice were weighed daily and evaluated for the IACUC approved humane endpoint of >30% weight loss as DSS mice regain weight quickly after DSS administration ceases. They were also monitored for occult blood with Hemoccult tape and developer (Beckman Coulter, 63202) and fecal consistency. Disease activity index (DAI) scores were a combination of weight loss (≥100%=0, 90-99%=1, 80-89%=2, […]), occult blood (no blood=0, blood=3), and fecal consistency (hard=0, soft=1, softer=2, runny=3), with a possible daily maximum score of 9. […] At the experimental endpoint, mice were euthanized, and colon lengths were measured from the base of the cecum to the rectum using digital calibrators. To determine immunization efficacy in a therapeutic colitis setting, colitis was first induced by administering one cycle of colitis achieved by 5 days of 2% DSS in water followed by 5 days of normal drinking water for a total of 10 days. Mice were monitored daily as described above until they on average regained their original body weight on day 20. At this point, i.p. immunizations were initiated and given three times over a 4-week period on days 20, 32, and 45, and colitis monitoring was reduced to twice weekly. An additional cycle of colitis was then induced on day 51 via 5 days of 2% DSS in water followed by 5 days of normal drinking water for a total of 10 days with daily monitoring. The entire therapeutic model ended on day 60, and colon lengths were measured as described above.
FITC-dextran Measurements. On the last day of the chronic and therapeutic DSS colitis models, mice were fasted overnight and then given 0.6 mg/g 3-5 KDa m.w. FITC-dextran (Sigma, FD4) in 100 μL of sterile 1×PBS via oral gavage. Serum samples were collected 3 h later at the experimental endpoint. To determine the intestinal barrier permeability, serum samples were diluted in 1×PBS and FITC fluorescence intensity was measured at an excitation of 488 nm and emission of 520 nm. Values were converted to pg/mL via a standard curve of FITC-dextran in serum.
Spleen Bacteria Measurements. At the conclusion of the DSS experiments, spleens were harvested and weighed followed by homogenization in 500 μL of 0.1% Triton X-100 in sterile 1×PBS using a Tissue Tearer handheld homogenizer (Biospec Products). 25 μL of homogenate solution was then spread on each quarter of culture plates consisting of tryptic soy broth No. 2 (Sigma, 51228) and Difco agar, granulated (BD Biosciences, 214530) in dilutions from 100 to 103. After a 48 hr incubation at 37° C., colony forming units (CFUs) were counted and converted to CFU/g of spleen tissue via the equations: […]
Colon IL-10 Quantification. At the conclusion of some DSS experiments, one half of the harvested mouse colons were flushed with PBS to remove fecal matter and flash frozen in liquid nitrogen. […]

ZO-1 = test: Immunofluorescence of colon tight junction protein ZO-1; details: week 5; vs PBS control mice
Procedure: (§1) Immunofluorescence Imaging and Analysis. Immunofluorescence was conducted on sections from proximal colon samples frozen in OCT and sectioned. Slides were first thawed and outlined with a hydrophobic pen (ImmEdge Hydrophobic Barrier PAP Pen, Vector Labs, H-4000) then fixed with 4% paraformaldehyde for 10 min at room temperature. The slides were washed three times with wash buffer (1×PBS+100 mM CaCl2+100 mM MgCl) for 10 min at room temperature then incubated in a blocking solution containing 0.3% Triton X-100 and 10% normal donkey serum in 1×PBS+100 mM CaCl2+100 mM MgCl for 1 h at room temperature. The slides were then incubated in the primary antibodies (rat anti-ZO-1, clone R40.70, Fisher Scientific, MABT11; rabbit anti-occludin, clone EPR20992, Abcam, ab216327) diluted 1:100 in the blocking solution overnight at 4° C. The slides were washed three times with wash buffer for 10 min at room temperature. They were then incubated in the secondary antibodies (donkey anti-rat Alexa Fluor™ 568, Thermo Fisher, A78946; donkey anti-rabbit Alexa Fluor™ 647, Thermo Fisher, A31573) and nuclear marker DAPI diluted 1:500 in the blocking solution for 2 h at room temperature. […] The intensities of each marker were quantified using ImageJ and expressed as the integrated density of the fluorescent signal normalized to the area fraction of DAPI positive pixels. […]

occludin = test: Immunofluorescence of colon tight junction protein occludin; details: week 5; vs PBS control mice
Procedure: as §1

[1] = 2% DSS, 3 cycles, 30 days, vs disease controls

(C11H22NO6P)n-CCCCSGSG-QQKFQFQFEQQ-NH2 (CCCCSGSGQQKFQFQFEQQ-NH2; not fully specified; cysteine pairing not given here; also: phosphorylcholine groups (C11H22NO6P) n=1-4, attachment not placed) [PCM-Q11, linear multi-PC conjugate]
disease activity index (DAI) scores / disease severity (C57BL/6 mice; [1]): improved disease severity
weight loss (C57BL/6 mice; [1]): reduced weight loss
serum anti-PC IgG subclass responses at week 5 (C57BL/6 mice; before DSS administration): skewed the subclass response towards non-inflammatory IgG1 with IgG2b also present
IL-10 levels in colon homogenates (C57BL/6 mice; chronic colitis experiment 1): highest levels that were not significantly different from healthy controls
colon length (colon shortening) (C57BL/6 mice; day 30, vs disease controls): diminished colon shortening
serum anti-PC IgM (C57BL/6 mice; i.p. days −35, −21, −7, without CpG): did not induce anti-PC IgM within detection levels
ZO-1 levels in colon after immunization (ZO-1): not significantly different
occludin levels in colon after immunization (occludin): not significantly different
